Laboratory results from patent US20220348595A1, “COMPOUNDS AND METHODS FOR THE TARGETED DEGRADATION OF ESTROGEN RECEPTORS” (Endotarget Inc., priority 2021, published 2022).
Like-named read-outs stand apart in the source and are kept apart here.

Columns and labels:
Type in all cases: cell-based
[1] = tested on: MCF-7 breast cancer cells; assay: MCF-7 proliferation / cell viability assay; conditions: MCF-7 proliferation with 0.1 nM 17-beta estradiol, read-out: IC50 (anti-proliferation)
Method: The Anti-Proliferative Activities of the Exemplary Compounds were Assessed by a Cell Viability Assay in MCF-7 Breast Cancer Cells
MCF-7 cells were plated in six-well plates at a density of 50,000 each well in 5% FBS DMEM medium. The cells were then treated with exemplary compounds or fulvestrant separately at 6 different doses ranging from 10^−10 M to 10^−5 M for 5 days, while equal volumes of DMSO were used as vehicle controls. Viable cell numbers were counted with a Z Series Coulter Counter instrument (Beckman-Coulter) following manufacturer's instructions. The ratio of drug treated viable cell numbers to vehicle treated viable cell numbers was defined as survival ratio where the control has the survival ratio of 100%.

ERα = target: T1, ERα (Homo sapiens, UniProt P03372); assay: ER degradation in MCF-7 cells (Western blot); conditions: for DC50: ER degradation, 24 hours; for Dmax: MCF7, Maximal ER degradation, read-out: Dmax
T1 construct: endogenous in cells; host or cells: MCF-7
T1 sequence (P03372 1-595): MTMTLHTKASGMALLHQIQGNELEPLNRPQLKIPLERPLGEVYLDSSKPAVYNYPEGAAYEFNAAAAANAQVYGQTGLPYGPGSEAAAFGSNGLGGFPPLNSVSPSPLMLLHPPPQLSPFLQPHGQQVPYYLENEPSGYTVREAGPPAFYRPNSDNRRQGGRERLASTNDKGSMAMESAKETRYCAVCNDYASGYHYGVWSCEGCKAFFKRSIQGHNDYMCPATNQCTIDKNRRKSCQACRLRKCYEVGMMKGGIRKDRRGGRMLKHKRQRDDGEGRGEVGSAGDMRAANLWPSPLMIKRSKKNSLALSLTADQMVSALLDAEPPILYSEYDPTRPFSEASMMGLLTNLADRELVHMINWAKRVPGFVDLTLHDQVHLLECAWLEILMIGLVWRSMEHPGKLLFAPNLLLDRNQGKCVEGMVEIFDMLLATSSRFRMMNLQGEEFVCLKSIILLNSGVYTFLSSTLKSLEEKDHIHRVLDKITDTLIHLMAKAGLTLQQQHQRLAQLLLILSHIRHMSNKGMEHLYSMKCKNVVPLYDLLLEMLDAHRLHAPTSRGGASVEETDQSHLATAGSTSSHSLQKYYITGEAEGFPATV
Method: Degradation of ER in MCF-7 Breast Cancer Cells by Exemplary Compounds of the Present Disclosure
MCF-7 cells were plated in 24-well plates at a density of 10^5 cells/well. Media containing various drug concentrations were added on the day following plating (day 0) and allowed to incubate for 24 hours for Western blot. Media with the tested compound was changed every other day. Cells were lysed, snapped frozen in liquid nitrogen, and stored at −80° C. until assay for ERα. Media were removed and dishes were washed with 1× DPBS. Lysates were made by adding 150 μL of complete lysis solution and scraping cells into a 1.5 mL microcentrifuge tube. Lysates were placed on a rotisserie at 4° C. for 30 min and then spun at 4° C. at 12000 rcf for 10 min. Supernatants were assayed for protein content, snap-frozen, and stored a −80° C. if not run immediately. Then 50 μg of protein was subjected to Western blot protocol. Membranes were blocked and then incubated with 1:200 dilution of ERα antibody at 4° C. overnight followed by 1:10000 dilution of secondary antibody for 1 h at room temperature. They were then imaged on a LICOR infrared scanner.
FIGS. 1 to 10 show the ER degradation efficacy of compounds 3, 5, 9, 11, 12, 16, 18, 19, 20, 21, 23, 24, 25, 26, 27, 28, 29, 30, 31, 32, 33, 34, 37, 38, and 40 in MCF-7 cells at various concentrations. Degradation of ER was expressed as an DC50 value and was determined for exemplary compounds in Table 1 by calculation of the concentration of compound that was required to give a 50% reduction of ER expression level. Maximal degradation of ER was expressed as a Dmax value by measuring the highest percentage of ER reduction achieved by exemplary compound in the treatment concentration range.

ER = target: T2, ER (Homo sapiens, UniProt P03372); assay: ER antagonism (T47D ERE luciferase), T47d-kb-Luc cells; conditions: read-out: IC50 (ER antagonistm)
T2 construct: endogenous in cells; host or cells: T47d-kb-Luc (T47D stably transfected with a luciferase reporter gene only)
T2 sequence (P03372 1-595): T1 sequence (P03372 1-595)
Method: The Antiestrogenic Activity of the Exemplary Compounds was Assessed in T47d-kb-Luc Stably Transfected Human Breast Cancer Cell
Antagonist activities were measured by the compound's ability to inhibit the activity of estradiol, the natural estrogen. Data were then normalized relative to the activity of the estradiol control and determinations were performed for five concentrations of the samples in quadruplicate in at least three separate experiments.

Structure (SMILES)	IC50 [1] [µM]	DC50 (ERα) [µM]	IC50 (ER) [µM]	IC50 ([1]; Homo sapiens, MCF7) [µM]	Dmax (ERα) [%]
CCC(=C(c1ccc(OCCN2CCN(CC3CCN(c4ccc5c(c4)C(=O)N(C4CCC(=O)NC4=O)C5=O)CC3)CC2)cc1)c1ccc(B(O)O)cc1)c1ccccc1 (stereo in doubt) [Compound 18, (E)-(4-(1-(4-(2-(4-((1-(2-(2,6-dioxopiperidin-3-yl)-1,3-dioxoisoindolin-5-yl)piperidin-4-yl)methyl)piperazin-1-yl)ethoxy)phenyl)-2-phenylbut-1-en-1-yl)phenyl)boronic acid]	0.01 to 0.05	< 0.01	0.01 to 0.05		
CC/C(=C(\c1ccc(B(O)O)cc1)c1ccc(N2CCC(CN3CCN(c4ccc5c(c4)CN(C4CCC(=O)NC4=O)C5=O)CC3)CC2)cc1)c1ccccc1 (stereo not shown) [Compound 1]		< 0.01	0.01 to 0.05	0.01 to 0.05	> 90
CC/C(=C(/c1ccc(B(O)O)cc1)c1ccc(N2CCC(CN3CCN(c4ccc5c(c4)CN(C4CCC(=O)NC4=O)C5=O)CC3)CC2)cc1)c1ccccc1 (stereo not shown) [Compound 2, (E)-(4-(1-(4-(4-((4-(2-(2,6-dioxopiperidin-3-yl)-1-oxoisoindolin-5-yl)piperazin-1-yl)methyl)piperidin-1-yl)phenyl)-2-phenylbut-1-en-1-yl)phenyl)boronic acid]		< 0.01	0.01 to 0.05	0.01 to 0.05	> 90
CC/C(=C(\c1ccc(B(O)O)cc1)c1ccc(N2CCC(CN3CCN(c4ccc5c(c4)C(=O)N(C4CCC(=O)NC4=O)C5)CC3)CC2)cc1)c1ccccc1 (stereo not shown) [Compound 3, (Z)-(4-(1-(4-(4-((4-(2-(2,6-dioxopiperidin-3-yl)-3-oxoisoindolin-5-yl)piperazin-1-yl)methyl)piperidin-1-yl)phenyl)-2-phenylbut-1-en-1-yl)phenyl)boronic acid]		> 0.05	< 0.01	< 0.01	> 75
CC/C(=C(/c1ccc(B(O)O)cc1)c1ccc(N2CCC(CN3CCN(c4ccc5c(c4)C(=O)N(C4CCC(=O)NC4=O)C5)CC3)CC2)cc1)c1ccccc1 (stereo not shown) [Compound 4, (E)-(4-(1-(4-(4-((4-(2-(2,6-dioxopiperidin-3-yl)-3-oxoisoindolin-5-yl)piperazin-1-yl)methyl)piperidin-1-yl)phenyl)-2-phenylbut-1-en-1-yl)phenyl)boronic acid]		> 0.05	< 0.01	< 0.01	> 75
CC/C(=C(\c1ccc(B(O)O)cc1)c1ccc(N2CCC(CN3CCN(c4ccc5c(c4)C(=O)N(C4CCC(=O)NC4=O)C5=O)CC3)CC2)cc1)c1ccccc1 (stereo not shown) [Compound 5, (Z)-(4-(1-(4-(4-((4-(2-(2,6-dioxopiperidin-3-yl)-1,3-dioxoisoindolin-5-yl)piperazin-1-yl)methyl)piperidin-1-yl)phenyl)-2-phenylbut-1-en-1-yl)phenyl)boronic acid]		0.01 to 0.05	0.01 to 0.05	> 0.05	> 90
CC/C(=C(/c1ccc(B(O)O)cc1)c1ccc(N2CCC(CN3CCN(c4ccc5c(c4)C(=O)N(C4CCC(=O)NC4=O)C5=O)CC3)CC2)cc1)c1ccccc1 (stereo not shown) [Compound 6, (E)-(4-(1-(4-(4-((4-(2-(2,6-dioxopiperidin-3-yl)-1,3-dioxoisoindolin-5-yl)piperazin-1-yl)methyl)piperidin-1-yl)phenyl)-2-phenylbut-1-en-1-yl)phenyl)boronic acid]		0.01 to 0.05	0.01 to 0.05	> 0.05	> 90
CC/C(=C(\c1ccc(B(O)O)cc1)c1ccc(N2CCC(CCN3CCN(c4ccc5c(c4)CN(C4CCC(=O)NC4=O)C5=O)CC3)CC2)cc1)c1ccccc1 (stereo not shown) [Compound 7, (Z)-(4-(1-(4-(4-(2-(4-(2-(2,6-dioxopiperidin-3-yl)-1-oxoisoindolin-5-yl)piperazin-1-yl)ethyl)piperidin-1-yl)phenyl)-2-phenylbut-1-en-1-yl)phenyl)boronic acid]		0.01 to 0.05	< 0.01	0.01 to 0.05	> 90
CC/C(=C(/c1ccc(B(O)O)cc1)c1ccc(N2CCC(CCN3CCN(c4ccc5c(c4)CN(C4CCC(=O)NC4=O)C5=O)CC3)CC2)cc1)c1ccccc1 (stereo not shown) [Compound 8, (E)-(4-(1-(4-(4-(2-(4-(2-(2,6-dioxopiperidin-3-yl)-1-oxoisoindolin-5-yl)piperazin-1-yl)ethyl)piperidin-1-yl)phenyl)-2-phenylbut-1-en-1-yl)phenyl)boronic acid]		0.01 to 0.05	< 0.01	0.01 to 0.05	> 90
CC/C(=C(\c1ccc(B2OC(C)(C)C(C)(C)O2)cc1)c1ccc(N2CCC(CCN3CCN(c4ccc5c(c4)CN(C4CCC(=O)NC4=O)C5=O)CC3)CC2)cc1)c1ccccc1 (stereo not shown) [Compound 9, (Z)-3-(1-oxo-5-(4-(2-(1-(4-(2-phenyl-1-(4-(4,4,5,5-tetramethyl-1,3,2-dioxaborolan-2-yl)phenyl)but-1-en-1-yl)phenyl)piperidin-4-yl)ethyl)piperazin-1-yl)isoindolin-2-yl)piperidine-2,6-dione]		0.01 to 0.05	< 0.01	< 0.01	> 90
CC/C(=C(/c1ccc(B2OC(C)(C)C(C)(C)O2)cc1)c1ccc(N2CCC(CCN3CCN(c4ccc5c(c4)CN(C4CCC(=O)NC4=O)C5=O)CC3)CC2)cc1)c1ccccc1 (stereo not shown) [Compound 10, (E)-3-(1-oxo-5-(4-(2-(1-(4-(2-phenyl-1-(4-(4,4,5,5-tetramethyl-1,3,2-dioxaborolan-2-yl)phenyl)but-1-en-1-yl)phenyl)piperidin-4-yl)ethyl)piperazin-1-yl)isoindolin-2-yl)piperidine-2,6-dione]		0.01 to 0.05	< 0.01	< 0.01	> 90
CC/C(=C(\c1ccc(B(O)O)cc1)c1ccc(N2CCC(CNC3CCN(c4ccc5c(c4)CN(C4CCC(=O)NC4=O)C5=O)CC3)CC2)cc1)c1ccccc1 (stereo not shown) [Compound 11]		< 0.01	< 0.01	< 0.01	> 90
CC/C(=C(/c1ccc(B(O)O)cc1)c1ccc(N2CCC(CNC3CCN(c4ccc5c(c4)CN(C4CCC(=O)NC4=O)C5=O)CC3)CC2)cc1)c1ccccc1 (stereo not shown) [Compound 12]		< 0.01	< 0.01	< 0.01	> 90
CC/C(=C(\c1ccc(B(O)O)cc1)c1ccc(N2CCC(CNC3CCN(c4ccc5c(c4)C(=O)N(C4CCC(=O)NC4=O)C5)CC3)CC2)cc1)c1ccccc1 (stereo not shown) [Compound 13, (Z)-(4-(1-(4-(4-(((1-(2-(2,6-dioxopiperidin-3-yl)-3-oxoisoindolin-5-yl)piperidin-4-yl)amino)methyl)piperidin-1-yl)phenyl)-2-phenylbut-1-en-1-yl)phenyl)boronic acid]		< 0.01	< 0.01	< 0.01	> 90
